From patent US20220184091A1, “Methods of Treating Cancer with Chk1 Inhibitors” (Sierra Oncology, Inc., priority 2019, published 2022) come the findings set out here.

The subject of one data set is SCLC cell lines. Put plainly: CellTiter-Glo cell viability assay, SCLC cell line panel. Type of data set: cell-based, human and murine. As to conditions: 96 h. The method, then:
SCLC cell lines were incubated with dimethyl sulfoxide (vehicle control), SRA737 or Gemcitabine for 96 hours at nine distinct concentrations, with the maximum dose being 10 μM. A CellTiter-Glo luminescent cell viability assay (Promega) was performed after 96 hours of treatment as per the manufacturer's specifications. IC50 values were estimated using Drexplorer, as previously described (Tong P, Coombes K R, Johnson F M, Byers L A, Diao L, Liu D D, Lee J J, Heymach J V, Wang J. drexplorer: A tool to explore dose-response relationships and drug-drug interactions. Bioinformatics. 2015 May 15; 31(10):1692-4.)
To investigate the in vitro activity of SRA737, a panel of 51 SCLC cell lines, including one murine derived model, and a panel of NSCLC, pancreatic, colon and bladder cancer cell lines were screened.

Another data set concerns PD-L1. Description: Flow cytometry of surface PD-L1 in SCLC cell lines. Type of data set: cell-based. Particulars: all SCLC cell lines tested; 1 μM for 72 hours. As for the experimental part:
Data presented as mean±SD and p values by t-test ***p<0.001.
Single-cell suspensions were prepared and stained according to standard protocols for flow cytometry with antibodies. For intracellular staining, cells were fixed and permeabilized with BD Cytofix/Cytoperm (BD Biosciences). The data were acquired on a Fortessa or Calibur platform (BD Biosciences) and analyzed with FlowJo software (version 7.6; Tree Star). For analyzing the abundance and the function of CD4+ or CD8+ TILs, single-cell suspensions were prepared from tumors and spleen and stained; the staining of spleen cells was used as the reference of lymphocyte gating, then CD3+ cells were gated, and then CD4+ or CD8+ population was analyzed.

Another data set concerns MBT-2. Description: MBT-2 bladder flank tumor growth in immunocompetent mice. As to conditions: SRA737 100 mg/kg 5-days-on/2-days-off p.o., anti-PD1 BIW 10 mg/kg i.p. It counts as in vivo, mouse. The method, then: Tumors were evaluated twice weekly for the duration of the study. Tumor volumes were measured on all mice three times per week and calculated (width^2×length×0.4) using manual calipers. Once the average tumor size was in the range of 120-150 mm^3, mice were randomized into dosing groups using stratified sampling by assigning three animals per group for short-term reverse-phase protein array analysis and long-term treatment. Dosing schedules and duration varied depending on the study. Mice were weighed three times per week for the duration of the study, and a decrease in body weight >15% was considered indicative of a toxic dose. The Student t-test was used to determine statistical significance between compound- and vehicle-treated groups.
Tumors cells were implanted into the flank of immunocompetent mice. Once the volumes of the tumor reached 150-200 mm^3, the mice were randomized and treated with either monotherapy of SRA737 at 100 mg/kg for 5-days-on/2-days-off p.o., anti-PD1 BIW at 10 mg/kg i.p. or the combination thereof.

The test system of the next data set is STING pathway. Description: Immunoblot of STING pathway proteins in resected RPP tumors. As to conditions: RPP tumors resected at Day 21. Type of data set: in vivo, mouse. The method, then: Western blot analysis was performed using SDS-PAGE followed by transfer to nitrocellulose membrane using the BioRad Gel system. Membranes were incubated in the following primary antibodies (1:1000) overnight: PD-L1 (CST), total and phospho- (S366) STING (CST), total and phospho- (S396) IRF3 (CST), phospho-YH2AX (CST) and Actin (Sigma). Secondary anti-rabbit, HRP-linked antibodies were purchased from Cell Signaling Biosciences and detected using the Chemidoc imaging system mage-captured with Image Studio Version 3.1 software.

A short description of data set [1]: Excretion of SRA737 in rats. It counts as in vivo. As to conditions: rat; over 24 hours. The method, then: The excretion of SRA737 has been studied in mice and rats administered SRA737 at either 5 mg/kg IV or 10 mg/kg orally. Urine and feces were collected for a 24-hour period after dosing. In mice, renal excretion of intact SRA737 was consistently low (less than 10% of dose) after both oral and IV administration. Following IV administration of SRA737, less than 8% of the dose was recovered as intact drug in the feces while after oral administration this figure was less than 3%. Excretion of intact SRA737 was lower in the rat than in the mouse with <1% of dose excreted renally over 24 hours and less than 1.5% of dose excreted into the feces over 24 hours.

For the next data set, the system named is CXCL10 and CCL5. Put plainly: qPCR of CXCL10 and CCL5 in MBT-2 tumors. It counts as in vivo, mouse. An excerpt: FIGS. 23A-D show the qPCR measurement of CXCL10 and CCL5 mRNA expression in MBT-2 (FIG. 23A and FIG. 23B) and MC38 (FIG. 23C and FIG. 23D) tumors resected after 7 or 14 days of treatment with SRA737 5/7 days. Data presented as mean±SD and p values by t-test * p<0.05, **p<0.01, ***p<0.001.
Real-time PCR was done using SYBR Select Master Mix (Life Technologies, cat #4472908) according to the manufacturer's protocol. Primers were purchased from Sigma Aldrich, Inc. Triplicate PCR reactions were run on ABI (7500 Fast Real Time PCR System). The comparative Ct method using the average 2ΔΔCT value for each set of triplicates was used, and the average of the biological replicates was calculated. Negative controls were included for every primer set, and GAPDH was used as the […].
The flank of immunocompetent mice was then treated with SRA737 monotherapy for 5-days-on/2-days-off for either one or two cycles and the expression of CCL5 and CXCL10 in extracted tumors were analyzed. […] The previously used dosing regimen of 5-days-on/2-days-off was modified to a schedule of 7-days-on/7-days-off for SRA737 treatment with or without co-treatment with anti-PD1 (Days 3, 7 and 11) based on the results of induction of chemokines secretion after 7 days.

Data set [2] addresses T1, Chk1 S296 autophosphorylation (Homo sapiens, UniProt O14757).
T1 construct: mice bearing HT29 tumor xenografts were administered; endogenous in cells; host or cells: HT29 human colon cancer xenografts in mice
Put plainly: Gemcitabine-induced Chk1 S296 autophosphorylation in HT29 tumor xenografts (western blotting). It counts as in vivo, mouse. Particulars: mice bearing HT29 xenografts; oral, 24 hours after gemcitabine 100 mg/kg IV. The method, then:
The effect of SRA737 on Gemcitabine induced Chk1 S296 autophosphorylation was assessed as described in Walton et al. (Oncotarget. 2016 Jan. 19; 7(3): 2329-2342), herein incorporated by reference for all it teaches. Briefly, mice bearing HT29 tumor xenografts were administered (i) vehicle control or (ii) gemcitabine (100 mg/kg in saline, IV) or (iii) a combination of SRA737 (12.5, 25, 50 or 100 mg/kg in DTPW, oral) and gemcitabine (100 mg/kg) with SRA737 administered 24 hours following gemcitabine administration (n=3 per time point per treatment). […] Exposure in the tumor was greater than 10-fold higher than in plasma. The circulating plasma concentration at this 24-hour timepoint corresponded to a free drug concentration of approximately 6 nM (2 ng/mL) based on plasma protein binding in mice of 94%.

Where only a bound is given, the exact number is not on record here.

T1 sequence (O14757 whole entry): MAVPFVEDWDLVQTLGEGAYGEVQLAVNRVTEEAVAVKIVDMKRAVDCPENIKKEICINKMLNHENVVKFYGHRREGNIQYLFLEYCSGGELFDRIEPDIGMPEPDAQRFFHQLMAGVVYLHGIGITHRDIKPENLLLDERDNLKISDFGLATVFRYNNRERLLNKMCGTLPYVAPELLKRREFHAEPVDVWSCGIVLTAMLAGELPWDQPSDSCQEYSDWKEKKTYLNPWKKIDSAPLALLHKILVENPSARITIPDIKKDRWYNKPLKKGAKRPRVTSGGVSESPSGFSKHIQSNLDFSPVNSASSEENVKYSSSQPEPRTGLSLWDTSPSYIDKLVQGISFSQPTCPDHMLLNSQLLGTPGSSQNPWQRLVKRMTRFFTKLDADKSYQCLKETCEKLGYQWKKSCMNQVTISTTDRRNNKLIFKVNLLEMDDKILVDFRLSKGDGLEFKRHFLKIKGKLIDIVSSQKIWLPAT

For `N#Cc1cnc(Nc2cc(NCC3CNCCO3)c(C(F)(F)F)cn2)cn1` (centres unmarked) [SRA737, 5-[[4-[[morpholin-2-yl]methylamino]-5-(trifluoromethyl)-2-pyridyl]amino]pyrazine-2-carbonitrile], the IC50 with SCLC cell lines (SCLC cell lines classified resistant (n=35)) is greater than 5 µM; in the data set on SCLC cell lines (SCLC cell lines classified sensitive (n=15)) it was less than 5 µM. In the data set with PD-L1, the “cell surface PD-L1 expression” value is on record as “significantly increased”. In the data set with MBT-2, the TGI stood at 53%. Besides, the “STING pathway incl. pSTING_S366, pTBK1_S172, cGAS, pIRF3_S396 in tumors” value with STING pathway is on record as “significant activation of the STING pathway”. In data set [1], the “dose excreted into the feces” value is “less than 1.5 % of dose”. The dose excreted renally in data set [1] was < 1 % of dose. The CCL5 levels entry with CXCL10 and CCL5 (after 7 days, p<0.01) is “significantly induced”; in the data set with CXCL10 and CCL5 (after 14 days) it was “no significant difference”. In addition, the CXCL10 expression entry in the data set with CXCL10 and CCL5 (after both 7 days and 14 days, p<0.05) is reported as “significant induction”. Also, the “SRA737 doses at which inhibition of pS296 Chk1 was observed” value in data set [2] is on record as “greater than or equal to 12.5 mg/kg”.
